Reference: ChEMBL document CHEMBL3861969, “Acredinone C and the Effect of Acredinones on Osteoclastogenic and Osteoblastogenic Activity” (J Nat Prod, 2016)
Active and inactive are the calls of the source. No cut-off for these calls is given here.

Key:
[1] = tested on: Mus musculus; test: Osteogenic activity in ICR mouse calvarial bone implanted with collagen sponges containing 10 mM compound incubated for 2 weeks assessed as increase in woven bone formation near periosteum of the calvarial bone by hematoxylin and eosin staining based assay relative to control; assay type: functional
[2] = target: RAC-alpha serine/threonine-protein kinase (Mus musculus) (UniProt P31750); test: Inhibition of RANKL-induced AKT phosphorylation in mouse BMDM cells assessed as ratio of phosphorylated AKT to AKT at 10 uM preincubated for 5 mins followed RANKL/M-CSF addition for 5 mins by Western blot analysis (reference value: 2.1); assay type: cell-based
RAC-alpha serine/threonine-protein kinase (Mus musculus), sequence (P31750 whole entry): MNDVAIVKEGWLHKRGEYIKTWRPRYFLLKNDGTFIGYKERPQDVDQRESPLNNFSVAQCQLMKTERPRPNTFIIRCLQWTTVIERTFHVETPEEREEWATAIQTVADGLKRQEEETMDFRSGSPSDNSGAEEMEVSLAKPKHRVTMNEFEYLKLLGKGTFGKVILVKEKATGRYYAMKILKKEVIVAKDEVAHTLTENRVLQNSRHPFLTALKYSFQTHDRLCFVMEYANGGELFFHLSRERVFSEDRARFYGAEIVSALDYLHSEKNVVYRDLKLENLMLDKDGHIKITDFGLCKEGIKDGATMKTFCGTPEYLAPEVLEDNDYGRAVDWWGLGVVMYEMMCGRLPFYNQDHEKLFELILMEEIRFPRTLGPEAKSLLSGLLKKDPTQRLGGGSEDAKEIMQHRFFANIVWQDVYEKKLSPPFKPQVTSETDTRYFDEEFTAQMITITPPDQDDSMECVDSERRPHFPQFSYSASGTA

[3] = target: T1, SMAD1/5/9 (Mus musculus) (UniProt P70340+P97454+Q9JIW5); test: Increase in BMP2-induced Smad1/5/8 phosphorylation in mouse C2C12 cells assessed as ratio of phosphorylated Smad1/5/8 to Smad1/5/8 in nuclear fraction at 10 uM preincubated with cells followed by BMP2 addition for 4 hrs by Western blot analysis (reference value: 1.2); assay type: cell-based
[4] = tested on: BMDM; test: Inhibition of RANKL-induced mouse BMDM cell differentiation assessed as TRAP-positive MNCs at 0.1 to 10 uM preincubated for 5 mins followed by RANKL/M-CSF addition measured after 4 days by TRAP-staining based assay; assay type: functional
[5] = target: Mitogen-activated protein kinase 9 (Mus musculus) (UniProt Q9WTU6); test: Inhibition of RANKL-induced JNK2 phosphorylation in mouse BMDM cells assessed as ratio of phosphorylated JNK2 to JNK2 at 10 uM preincubated for 5 mins followed RANKL/M-CSF addition for 5 mins by Western blot analysis (reference value: 5.2); assay type: cell-based
Mitogen-activated protein kinase 9 (Mus musculus), sequence (Q9WTU6 whole entry): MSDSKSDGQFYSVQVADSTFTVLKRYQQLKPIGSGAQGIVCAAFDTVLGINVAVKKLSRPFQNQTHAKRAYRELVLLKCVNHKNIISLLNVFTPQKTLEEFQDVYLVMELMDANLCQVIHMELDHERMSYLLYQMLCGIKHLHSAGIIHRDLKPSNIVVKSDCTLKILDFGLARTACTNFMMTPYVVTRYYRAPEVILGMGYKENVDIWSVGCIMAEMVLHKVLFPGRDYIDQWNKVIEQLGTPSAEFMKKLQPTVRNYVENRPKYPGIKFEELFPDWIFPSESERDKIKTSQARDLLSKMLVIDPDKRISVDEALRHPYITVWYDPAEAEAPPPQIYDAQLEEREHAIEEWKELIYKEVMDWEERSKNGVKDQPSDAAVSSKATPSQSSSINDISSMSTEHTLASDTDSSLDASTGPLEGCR

[6] = target: Mitogen-activated protein kinase 8 (Mus musculus) (UniProt Q91Y86); test: Inhibition of RANKL-induced JNK1 phosphorylation in mouse BMDM cells assessed as ratio of phosphorylated JNK1 to JNK1 at 10 uM preincubated for 5 mins followed RANKL/M-CSF addition for 5 mins by Western blot analysis (reference value: 3.7); assay type: cell-based
Mitogen-activated protein kinase 8 (Mus musculus), sequence (Q91Y86 whole entry): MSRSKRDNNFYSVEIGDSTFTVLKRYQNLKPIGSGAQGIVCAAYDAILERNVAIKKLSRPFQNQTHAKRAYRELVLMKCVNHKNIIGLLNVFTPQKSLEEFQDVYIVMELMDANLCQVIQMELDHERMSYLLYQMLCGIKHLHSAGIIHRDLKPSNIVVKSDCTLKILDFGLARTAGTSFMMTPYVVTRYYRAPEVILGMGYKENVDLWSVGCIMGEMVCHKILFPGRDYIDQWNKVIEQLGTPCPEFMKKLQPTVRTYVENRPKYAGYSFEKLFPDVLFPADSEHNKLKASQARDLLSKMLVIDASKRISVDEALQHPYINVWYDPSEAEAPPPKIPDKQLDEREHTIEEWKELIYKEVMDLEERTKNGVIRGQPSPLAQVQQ

[7] = tested on: C2C12; test: Increase in BMP2-induced BMP2 protein expression in mouse C2C12 cells assessed as ration of BMP2 to actin at 10 uM measured on day 3 by Western blot analysis (reference value: 1.4); assay type: functional
[8] = tested on: C2C12; test: Increase in BMP2-induced BMP4 mRNA expression in mouse C2C12 cells at 10 uM measured on day 3 by real-time PCR analysis; assay type: functional, cell-based
[9] = organism: Mus musculus; test: Cytotoxicity against mouse C2C12 cells assessed as reduction cell viability after 3 days in presence of BMP2 by CCK-8 assay; assay type: toxicity, cell-based; settings: c2c12, 72 h
[10] = organism: Mus musculus; test: Cytotoxicity against mouse BMDM cells assessed as reduction in cell viability up to 10 uM after 3 days in presence of M-CSF by CCK-8 assay; assay type: toxicity, cell-based; settings: 72 h
[11] = tested on: BMDM; test: Inhibition of RANKL-induced NFATc1 mRNA expression in mouse BMDM cells at 10 uM preincubated with cells followed by RANKL addition measured after 2 days by real-time PCR analysis; assay type: functional, cell-based
[12] = Inhibition of RANKL-induced c-Fos expression in mouse BMDM cells assessed as ratio of c-Fos to actin at 10 uM preincubated with cells followed RANKL/M-CSF addition measured after 1 day by Western blot analysis (reference value: 6.4); assay type: functional
[13] = tested on: Osteoclast; test: Inhibition of RANKL-induced mouse BMDM cell differentiation assessed as reduction in TRAP-positive multi-nucleated osteoclast cells preincubated for 5 mins followed by RANKL/M-CSF addition measured after 4 days by light microscopic analysis; assay type: functional, cell-based
[14] = target: T1, SMAD1/5/9 (Mus musculus); test: Activation of Smad1/5/8 in mouse C2C12 cells assessed as increase in BMP2-stimulated OPN mRNA expression at 10 uM preincubated with cells followed by BMP2 addition after 3 days by real-time PCR analysis; assay type: cell-based
[15] = tested on: C2C12; test: Induction of BMP2-induced osteoblast differentiation in mouse C2C12 cells assessed as increase in ALP mRNA expression at 10 uM preincubated with cells followed by BMP2 addition measured after 3 days by real-time PCR analysis; assay type: functional, cell-based
[16] = tested on: BMDM; test: Inhibition of RANKL-induced mouse BMDM cell differentiation assessed as reduction in TRAP activity at 0.1 to 30 uM using p-nitrophenyl phosphate as substrate preincubated for 5 mins followed by RANKL/M-CSF addition measured after 4 days; assay type: functional, cell-based
[17] = tested on: BMDM; test: Inhibition of RANKL-induced mouse BMDM cell differentiation assessed as TRAP-positive MNCs at 0.1 to 30 uM preincubated for 5 mins followed by RANKL/M-CSF addition measured after 4 days by TRAP-staining based assay; assay type: functional
[18] = tested on: BMDM; test: Inhibition of RANKL-induced TRAP mRNA expression in mouse BMDM cells at 10 uM preincubated with cells followed by RANKL addition measured after 2 days by real-time PCR analysis; assay type: functional, cell-based
[19] = Inhibition of RANKL-induced NFATc1 expression in mouse BMDM cells assessed as ratio of NFATc1 to actin at 10 uM preincubated with cells followed RANKL/M-CSF addition measured after 1day by Western blot analysis (reference value: 281); assay type: functional
[20] = tested on: C2C12; test: Increase in BMP2-induced BMP6 mRNA expression in mouse C2C12 cells at 10 uM measured on day 3 by real-time PCR analysis; assay type: functional, cell-based
[21] = target: T2, NF-kappa-B inhibitor alpha (Mus musculus) (UniProt Q9Z1E3); test: Inhibition of RANKL-induced IkBalpha phosphorylation in mouse BMDM cells at 10 uM preincubated for 5 mins followed RANKL/M-CSF addition for 5 mins by Western blot analysis; assay type: cell-based
T2 sequence (whole entry): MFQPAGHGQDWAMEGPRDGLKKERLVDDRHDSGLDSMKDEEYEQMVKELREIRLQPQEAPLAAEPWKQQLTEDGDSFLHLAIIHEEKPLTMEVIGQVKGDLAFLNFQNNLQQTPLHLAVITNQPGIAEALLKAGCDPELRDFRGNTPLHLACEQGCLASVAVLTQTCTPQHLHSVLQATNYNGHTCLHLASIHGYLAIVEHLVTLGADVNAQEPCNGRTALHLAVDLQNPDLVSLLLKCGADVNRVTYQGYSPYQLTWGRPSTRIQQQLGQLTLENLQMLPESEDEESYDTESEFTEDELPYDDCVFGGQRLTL

[22] = tested on: C2C12; test: Increase in BMP2-induced BMP7 mRNA expression in mouse C2C12 cells at 10 uM measured on day 3 by real-time PCR analysis; assay type: functional, cell-based
[23] = target: T1, SMAD1/5/9 (Mus musculus); test: Increase in BMP2-induced Smad1/5/8 nuclear translocation in mouse C2C12 cells assessed as ratio of Smad1/5/8 to lamin B1 in nuclear fraction at 10 uM preincubated with cells followed by BMP2 addition for 4 hrs by Western blot analysis (reference value: 1.5); assay type: cell-based
[24] = tested on: Mus musculus; test: Osteogenic activity in ICR mouse calvarial bone implanted with collagen sponges containing 10 mM compound incubated for 2 weeks assessed as increase in bone volume relative to control; assay type: functional
[25] = tested on: BMDM; test: Inhibition of RANKL-induced cathespin K mRNA expression in mouse BMDM cells at 10 uM preincubated with cells followed by RANKL addition measured after 2 days by real-time PCR analysis; assay type: functional, cell-based
[26] = tested on: C2C12; test: Increase in BMP2-induced BMP2 mRNA expression in mouse C2C12 cells at 10 uM measured on day 3 by real-time PCR analysis; assay type: functional, cell-based
[27] = target: T1, SMAD1/5/9 (Mus musculus); test: Increase in BMP2-induced Smad1/5/8 nuclear translocation in mouse C2C12 cells assessed as ratio of Smad1/5/8 to actin in cytosol fraction at 10 uM preincubated with cells followed by BMP2 addition for 4 hrs by Western blot analysis (reference value: 0.4); assay type: cell-based
[28] = target: T1, SMAD1/5/9 (Mus musculus); test: Activation of Smad1/5/8 in mouse C2C12 cells assessed as increase in BMP2-stimulated Runx2 mRNA expression at 10 uM preincubated with cells followed by BMP2 addition after 3 days by real-time PCR analysis; assay type: cell-based
[29] = target: T1, SMAD1/5/9 (Mus musculus); test: Activation of Smad1/5/8 in mouse C2C12 cells assessed as increase in BMP2-stimulated […] mRNA expression at 10 uM preincubated with cells followed by BMP2 addition after 3 days by real-time PCR analysis; assay type: cell-based
[30] = tested on: C2C12; test: Increase in BMP2-induced BMP7 protein expression in mouse C2C12 cells assessed as ratio of BMP7 to actin at 10 uM measured on day 6 by Western blot analysis (reference value: 2.4); assay type: functional
[31] = target: MAP kinase p38 (Mus musculus) (UniProt P47811+O08911+Q9WUI1+Q9Z1B7); test: Inhibition of RANKL-induced p38 phosphorylation in mouse BMDM cells assessed as ratio of phosphorylated p38 to p38 at 10 uM preincubated for 5 mins followed RANKL/M-CSF addition for 5 mins by Western blot analysis (reference value: 24.7); assay type: cell-based
[32] = tested on: BMDM; test: Inhibition of RANKL-induced DC-STAMP mRNA expression in mouse BMDM cells at 10 uM preincubated with cells followed by RANKL addition measured after 2 days by real-time PCR analysis; assay type: functional, cell-based
[33] = tested on: C2C12; test: Induction of osteoblast differentiation in mouse C2C12 cells assessed as increase in BMP2-induced ALP activity preincubated with cells after 3 days using p-nitrophenyl phosphate as substrate; assay type: functional, cell-based
[34] = tested on: C2C12; test: Increase in BMP2-induced BMP9 mRNA expression in mouse C2C12 cells at 10 uM measured on day 3 by real-time PCR analysis; assay type: functional, cell-based
[35] = target: Mitogen-activated protein kinase 3 (Mus musculus) (UniProt Q63844); test: Inhibition of RANKL-induced ERK1 phosphorylation in mouse BMDM cells assessed as ratio of phosphorylated ERK1 to ERK1 at 10 uM preincubated for 5 mins followed RANKL/M-CSF addition for 5 mins by Western blot analysis (reference value: 2.9); assay type: cell-based
Mitogen-activated protein kinase 3 (Mus musculus), sequence (Q63844 whole entry): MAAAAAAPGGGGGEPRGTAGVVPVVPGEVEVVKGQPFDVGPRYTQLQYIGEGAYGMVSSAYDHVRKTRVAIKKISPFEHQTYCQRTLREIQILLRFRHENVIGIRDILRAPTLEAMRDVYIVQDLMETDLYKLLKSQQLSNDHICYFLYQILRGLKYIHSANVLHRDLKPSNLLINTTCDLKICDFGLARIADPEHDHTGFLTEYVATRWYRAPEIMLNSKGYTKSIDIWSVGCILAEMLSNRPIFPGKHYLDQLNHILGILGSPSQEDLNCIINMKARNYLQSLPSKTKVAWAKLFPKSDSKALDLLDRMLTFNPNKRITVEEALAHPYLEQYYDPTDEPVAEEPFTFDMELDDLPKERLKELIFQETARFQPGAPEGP

[36] = tested on: BMDM; test: Inhibition of RANKL-induced OSCAR mRNA expression in mouse BMDM cells at 10 uM preincubated with cells followed by RANKL addition measured after 2 days by real-time PCR analysis; assay type: functional, cell-based
[37] = target: Mitogen-activated protein kinase 1 (Mus musculus) (UniProt P63085); test: Inhibition of RANKL-induced ERK2 phosphorylation in mouse BMDM cells assessed as ratio of phosphorylated ERK2 to ERK2 at 10 uM preincubated for 5 mins followed RANKL/M-CSF addition for 5 mins by Western blot analysis (reference value: 2.6); assay type: cell-based
Mitogen-activated protein kinase 1 (Mus musculus), sequence (P63085 whole entry): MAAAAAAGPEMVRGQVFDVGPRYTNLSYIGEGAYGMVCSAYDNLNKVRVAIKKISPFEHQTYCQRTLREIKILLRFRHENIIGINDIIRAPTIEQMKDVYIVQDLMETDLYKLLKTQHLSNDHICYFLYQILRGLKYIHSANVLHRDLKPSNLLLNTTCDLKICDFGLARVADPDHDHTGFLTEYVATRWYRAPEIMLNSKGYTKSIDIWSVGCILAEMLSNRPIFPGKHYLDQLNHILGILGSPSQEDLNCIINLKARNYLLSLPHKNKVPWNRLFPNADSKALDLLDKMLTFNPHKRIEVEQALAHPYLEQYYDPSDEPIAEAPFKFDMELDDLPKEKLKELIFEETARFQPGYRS

[38] = tested on: BMDM; test: Inhibition of RANKL-induced c-Src mRNA expression in mouse BMDM cells at 10 uM preincubated with cells followed by RANKL addition measured after 2 days by real-time PCR analysis; assay type: functional, cell-based
[39] = tested on: C2C12; test: Induction of BMP2-induced osteoblast differentiation in mouse C2C12 cells preincubated with cells after 3 days by […] assay; assay type: functional, cell-based

SMILES	fold change (FC) [2]	inhibition [4]	fold change (FC) [5]	fold change (FC) [6]	Activity [9]	Activity [10]	inhibition [11]	fold change (FC) [12]	inhibition [13]	Activity [15]	inhibition [16]	inhibition [17]	inhibition [18]	fold change (FC) [19]	inhibition [21]	inhibition [25]	fold change (FC) [31]	inhibition [32]	fold change (FC) [35]	inhibition [36]	also measured
COc1cccc(OC)c1C(=O)c1c(O)cc(C)c(OC)c1C1=C(c2c(OC)cccc2OC)c2c(O)cc(C)c(OC)c2C1=O	2	Active	4.3	2.9	Non-Toxic	Non-Toxic	Active	5.5	Dose-dependent effect	Active	Active	Active	Active	175	Active	Active	13.2	Active	3.2	Active	Activity [1]: Active; fold change (FC) [3]: 1.7; fold change (FC) [7]: 3.8; Activity [8]: Active; Activity [14]: Active; Activity [20]: Active; Activity [22]: Active; fold change (FC) [23]: 2.4; fold change (FC) [24]: 2.7; Activity [26]: Active; fold change (FC) [27]: 0.1; Activity [28]: Active; Activity [29]: Active; fold change (FC) [30]: 3.1; Activity [33]: Dose-dependent effect; Activity [34]: Active; fold change (FC) [37]: 2.8; inhibition [38]: Active; Activity [39]: Dose-dependent effect
COc1cccc(OC)c1C(=O)c1c(O)cc(C)c(OC)c1C(=O)Cc1c(OC)c(C)cc2oc3cccc(OC)c3c(=O)c12	1.7	Active	3.7	2.2	Non-Toxic	Non-Toxic	Active	2.4	Dose-dependent effect	Active	Active	Active	Active	85	Active	Active	8.2	Active	3.3	Active	fold change (FC) [37]: 2.6; inhibition [38]: Active
